Format in all cases: cell-based
The target in assay [1] is Transient receptor potential cation channel subfamily V member 1 (Homo sapiens, UniProt Q8NER1). In words: (§1) Radiometric Calcium Assay: The inhibition of TRPA1 receptor activation was measured as inhibition of allylisothiocyanate (AITC) induced cellular uptake of radioactive calcium. Test compounds were dissolved in DMSO to prepare 10 mM stock solution and then diluted using plain medium with 0.1% BSA and 1.8 mM CaCl2 to get desired concentration. Final concentration of DMSO in the reaction was 0.5% (v/v). Human TRPA1 expressing CHO cells were grown in F-12 DMEM medium with 10% FBS, 1% penicillin-streptomycin solution, and 400 ug/ml of G-418. Cells were seeded 24 h prior to the assay in 96 well plates so as to get 50,000 cells per well on the day of experiment. Cells were treated with test compounds for 10 min followed by addition of AITC at a final concentration of 30 micromolar and 5 uCi/ml 45Ca+2 for 3 min at 25° C. Cells were washed and lysed using buffer containing 1% Triton X-100, 0.1% deoxycholate and 0.1% SDS. Radioactivity in the lysate was measured in Packard Top count.
Chain of Transient receptor potential cation channel subfamily V member 1 (Q8NER1 whole entry): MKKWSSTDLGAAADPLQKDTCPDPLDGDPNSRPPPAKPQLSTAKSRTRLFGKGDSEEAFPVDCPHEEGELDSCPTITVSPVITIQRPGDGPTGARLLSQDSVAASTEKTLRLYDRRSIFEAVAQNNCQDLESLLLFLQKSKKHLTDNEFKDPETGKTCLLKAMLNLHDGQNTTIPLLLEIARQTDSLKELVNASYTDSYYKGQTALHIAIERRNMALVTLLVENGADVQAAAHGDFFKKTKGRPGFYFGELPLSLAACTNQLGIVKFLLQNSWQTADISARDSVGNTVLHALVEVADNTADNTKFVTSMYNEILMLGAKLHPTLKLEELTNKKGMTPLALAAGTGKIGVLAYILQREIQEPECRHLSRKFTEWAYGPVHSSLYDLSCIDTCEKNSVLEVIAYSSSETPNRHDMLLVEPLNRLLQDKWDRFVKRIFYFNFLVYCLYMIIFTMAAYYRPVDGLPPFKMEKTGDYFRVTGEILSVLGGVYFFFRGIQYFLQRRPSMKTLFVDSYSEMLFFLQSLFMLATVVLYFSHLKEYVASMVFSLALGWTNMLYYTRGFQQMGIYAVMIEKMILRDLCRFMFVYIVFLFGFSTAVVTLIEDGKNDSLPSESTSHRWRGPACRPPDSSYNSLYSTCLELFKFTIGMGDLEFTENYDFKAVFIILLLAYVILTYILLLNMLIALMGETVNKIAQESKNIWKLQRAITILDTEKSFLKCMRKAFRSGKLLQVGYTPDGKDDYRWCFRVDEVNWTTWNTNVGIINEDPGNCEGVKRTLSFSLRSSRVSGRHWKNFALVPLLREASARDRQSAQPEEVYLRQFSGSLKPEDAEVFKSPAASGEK

The target in assay [2] is Transient receptor potential cation channel subfamily M member 8 (Homo sapiens, UniProt Q7Z2W7). The assay is described as §1.
Chain of Transient receptor potential cation channel subfamily M member 8 (Q7Z2W7 whole entry): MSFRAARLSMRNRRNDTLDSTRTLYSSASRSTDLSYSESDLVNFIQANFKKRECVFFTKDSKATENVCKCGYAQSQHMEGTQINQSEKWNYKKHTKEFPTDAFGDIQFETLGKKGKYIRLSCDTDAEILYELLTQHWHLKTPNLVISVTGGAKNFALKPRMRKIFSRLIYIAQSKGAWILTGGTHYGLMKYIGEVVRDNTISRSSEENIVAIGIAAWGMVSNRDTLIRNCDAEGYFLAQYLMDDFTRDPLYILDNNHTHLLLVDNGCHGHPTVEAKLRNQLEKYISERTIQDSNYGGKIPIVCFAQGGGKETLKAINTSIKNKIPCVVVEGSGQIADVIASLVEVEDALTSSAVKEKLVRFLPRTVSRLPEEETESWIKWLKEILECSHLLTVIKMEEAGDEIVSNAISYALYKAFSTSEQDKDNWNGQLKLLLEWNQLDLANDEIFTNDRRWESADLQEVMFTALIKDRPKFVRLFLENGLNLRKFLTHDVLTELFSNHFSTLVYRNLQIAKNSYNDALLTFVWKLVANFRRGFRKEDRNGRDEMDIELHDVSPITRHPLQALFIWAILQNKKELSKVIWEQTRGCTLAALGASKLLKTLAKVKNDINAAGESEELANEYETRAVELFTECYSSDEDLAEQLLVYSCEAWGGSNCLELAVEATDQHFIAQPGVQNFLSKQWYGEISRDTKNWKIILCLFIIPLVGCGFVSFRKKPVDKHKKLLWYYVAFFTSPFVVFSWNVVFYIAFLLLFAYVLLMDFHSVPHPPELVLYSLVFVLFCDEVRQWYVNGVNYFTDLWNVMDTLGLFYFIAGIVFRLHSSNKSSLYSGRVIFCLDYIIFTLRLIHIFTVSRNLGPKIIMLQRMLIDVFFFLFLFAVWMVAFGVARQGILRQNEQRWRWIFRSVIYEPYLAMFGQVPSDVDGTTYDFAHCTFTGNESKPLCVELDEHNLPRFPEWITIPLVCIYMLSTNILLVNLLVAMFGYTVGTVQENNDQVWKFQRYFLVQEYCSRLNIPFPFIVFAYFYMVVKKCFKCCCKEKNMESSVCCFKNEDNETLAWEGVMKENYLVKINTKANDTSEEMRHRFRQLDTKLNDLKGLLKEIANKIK
For assay [3], the target named is T1, Transient receptor potential cation channel subfamily V member 3 (Homo sapiens, UniProt Q8NET8).
T1 sequence (Q8NET8 whole entry): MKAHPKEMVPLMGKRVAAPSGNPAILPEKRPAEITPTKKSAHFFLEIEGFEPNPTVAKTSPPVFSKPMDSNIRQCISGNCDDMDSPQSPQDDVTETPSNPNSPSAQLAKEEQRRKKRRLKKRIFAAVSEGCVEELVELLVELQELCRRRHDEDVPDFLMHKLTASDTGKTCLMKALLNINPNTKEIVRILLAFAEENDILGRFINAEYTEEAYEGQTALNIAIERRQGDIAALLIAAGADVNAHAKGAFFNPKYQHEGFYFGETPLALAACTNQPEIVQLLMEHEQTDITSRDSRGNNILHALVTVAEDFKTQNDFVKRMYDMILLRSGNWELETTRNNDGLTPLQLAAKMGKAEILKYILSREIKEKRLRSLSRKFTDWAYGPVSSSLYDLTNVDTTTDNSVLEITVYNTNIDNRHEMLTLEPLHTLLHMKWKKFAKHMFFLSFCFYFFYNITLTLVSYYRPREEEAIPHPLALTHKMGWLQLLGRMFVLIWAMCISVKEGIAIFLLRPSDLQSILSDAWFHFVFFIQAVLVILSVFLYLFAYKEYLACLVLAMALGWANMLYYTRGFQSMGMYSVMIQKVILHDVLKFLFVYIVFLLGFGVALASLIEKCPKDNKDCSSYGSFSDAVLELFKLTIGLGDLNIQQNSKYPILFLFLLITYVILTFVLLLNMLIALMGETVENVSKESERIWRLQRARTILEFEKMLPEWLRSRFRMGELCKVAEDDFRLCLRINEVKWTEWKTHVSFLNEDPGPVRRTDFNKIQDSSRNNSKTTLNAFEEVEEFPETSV
The assay is described as §1.

Assay [4] concerns the target Transient receptor potential cation channel subfamily V member 4 (Homo sapiens, UniProt Q9HBA0). Described as §1.
Assay [5] concerns the target Transient receptor potential cation channel subfamily A member 1 (Homo sapiens, UniProt O75762). Described as §1.

Some results are limits rather than exact numbers.

Chain of Transient receptor potential cation channel subfamily V member 4 (Q9HBA0 whole entry): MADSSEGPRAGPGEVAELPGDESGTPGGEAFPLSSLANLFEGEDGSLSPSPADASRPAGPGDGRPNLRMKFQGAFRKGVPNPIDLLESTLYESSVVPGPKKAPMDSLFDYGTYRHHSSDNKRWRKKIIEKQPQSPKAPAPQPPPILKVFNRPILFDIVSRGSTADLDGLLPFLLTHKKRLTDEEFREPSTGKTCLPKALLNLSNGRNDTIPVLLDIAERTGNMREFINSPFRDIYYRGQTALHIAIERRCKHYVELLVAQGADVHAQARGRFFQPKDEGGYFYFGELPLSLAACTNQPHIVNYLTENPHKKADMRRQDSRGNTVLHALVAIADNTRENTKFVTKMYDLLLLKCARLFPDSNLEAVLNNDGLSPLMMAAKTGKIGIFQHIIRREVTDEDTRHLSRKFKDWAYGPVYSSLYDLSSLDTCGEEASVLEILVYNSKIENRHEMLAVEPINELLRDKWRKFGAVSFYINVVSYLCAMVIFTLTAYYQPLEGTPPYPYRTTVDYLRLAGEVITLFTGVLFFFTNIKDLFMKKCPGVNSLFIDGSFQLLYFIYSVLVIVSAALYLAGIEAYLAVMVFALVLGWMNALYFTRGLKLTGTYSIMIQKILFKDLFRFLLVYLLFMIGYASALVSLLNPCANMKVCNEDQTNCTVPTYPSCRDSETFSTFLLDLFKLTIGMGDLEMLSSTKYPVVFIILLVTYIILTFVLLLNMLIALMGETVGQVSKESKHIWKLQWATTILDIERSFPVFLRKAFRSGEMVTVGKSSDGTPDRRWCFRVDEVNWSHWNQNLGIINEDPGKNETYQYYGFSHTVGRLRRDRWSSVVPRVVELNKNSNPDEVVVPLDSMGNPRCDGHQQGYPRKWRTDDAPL
Chain of Transient receptor potential cation channel subfamily A member 1 (O75762 whole entry): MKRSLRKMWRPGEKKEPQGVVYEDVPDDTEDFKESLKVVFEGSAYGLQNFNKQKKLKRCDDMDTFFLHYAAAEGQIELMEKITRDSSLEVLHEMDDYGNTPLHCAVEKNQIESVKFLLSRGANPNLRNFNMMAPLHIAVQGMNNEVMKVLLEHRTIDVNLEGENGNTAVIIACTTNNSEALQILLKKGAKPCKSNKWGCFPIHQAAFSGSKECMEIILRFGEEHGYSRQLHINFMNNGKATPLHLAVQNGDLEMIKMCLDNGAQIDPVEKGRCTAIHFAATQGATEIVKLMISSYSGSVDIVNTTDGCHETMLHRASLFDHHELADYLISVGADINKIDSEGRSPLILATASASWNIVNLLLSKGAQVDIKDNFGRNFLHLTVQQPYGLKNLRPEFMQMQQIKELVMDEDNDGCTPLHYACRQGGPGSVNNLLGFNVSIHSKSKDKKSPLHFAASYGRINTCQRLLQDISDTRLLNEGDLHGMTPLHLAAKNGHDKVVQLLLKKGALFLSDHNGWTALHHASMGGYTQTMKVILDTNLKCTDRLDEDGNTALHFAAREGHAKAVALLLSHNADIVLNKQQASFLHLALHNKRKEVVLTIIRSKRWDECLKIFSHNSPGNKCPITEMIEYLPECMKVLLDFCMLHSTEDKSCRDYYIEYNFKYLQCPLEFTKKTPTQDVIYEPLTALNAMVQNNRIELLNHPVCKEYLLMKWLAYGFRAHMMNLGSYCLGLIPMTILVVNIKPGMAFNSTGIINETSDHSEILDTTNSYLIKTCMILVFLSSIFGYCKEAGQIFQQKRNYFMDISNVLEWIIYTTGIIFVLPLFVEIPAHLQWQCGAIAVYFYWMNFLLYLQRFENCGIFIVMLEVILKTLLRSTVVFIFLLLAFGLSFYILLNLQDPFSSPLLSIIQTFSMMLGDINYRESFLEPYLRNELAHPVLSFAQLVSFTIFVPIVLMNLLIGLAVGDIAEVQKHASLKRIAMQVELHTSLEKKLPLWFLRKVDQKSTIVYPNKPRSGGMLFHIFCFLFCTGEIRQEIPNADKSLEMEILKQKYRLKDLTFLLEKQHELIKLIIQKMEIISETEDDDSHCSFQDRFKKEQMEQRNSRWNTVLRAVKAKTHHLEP

`Cn1c(=O)c2c(CC(=O)Nc3nc(-c4ccc(C(F)(F)F)c(F)c4F)cs3)nsc2n(C)c1=O`: the IC50 in assay [1] was 17.7 µM; in assay [2], greater than 10 µM; in assay [3] it was 2.83 µM; in assay [4] it was 0.132 µM.

For the compound `Cn1nc2c(c1CC(=O)/N=c1\scc(-c3ccc(F)c(C(F)(F)F)c3F)n1COP(=O)(O)O)c(=O)n(C)c(=O)n2C`, the IC50 is greater than 10 µM in assay [1]; greater than 10 µM in assay [2]; greater than 10 µM in assay [3]; greater than 10 µM in assay [4]; 1.58 µM in assay [5].

In the case of `Cc1oc2c(c1CC(=O)/N=c1\scc(-c3ccc(OC(F)(F)F)c(Cl)c3)n1COP(=O)(O)O)c(=O)n(C)c(=O)n2C`, the IC50 was greater than 10 µM in assay [1]; greater than 10 µM in assay [2]; greater than 10 µM in assay [3]; greater than 10 µM in assay [4]; 1.18 µM in assay [5].

With `Cc1oc2c(c1CC(=O)Nc1nc(-c3ccc(OC(F)(F)F)c(Cl)c3)cs1)c(=O)n(C)c(=O)n2C`, the IC50 in assay [1] was greater than 10 µM; in assay [2] it was greater than 10 µM; in assay [3], 4.45 µM; in assay [4], 5.74 µM.

Consider `Cc1oc2c(c1CC(=O)/N=c1\scc(-c3ccc(OC(F)(F)F)c(Cl)c3)n1COC(=O)[C@@H](N)C(C)C)c(=O)n(C)c(=O)n2C`, for which the IC50 in assay [1] was greater than 10 µM; in assay [2], greater than 10 µM; in assay [3] it was 2.81 µM; in assay [4] it was 2.35 µM.

Turning to `Cn1c(=O)c2c(CC(=O)Nc3nc(-c4ccc(F)c(C(F)(F)F)c4F)cs3)csc2n(C)c1=O`, the IC50 in assay [3] is 2.52 µM; in assay [4], 3.04 µM.

For orientation: IC50 means the concentration that inhibits the measured activity by half.
